Laboratory results from PubChem BioAssay AID1259407 (Chemical Carcinogenesis Research Information System (CCRIS), 2018).
Active and inactive are the calls of the source. The rule behind the calls is not given here.

Test system: CCRIS mutagenicity, Ames/micronucleus/aberration tests
Assay: CCRIS mutagenicity studies
Settings: Test System: AMES SALMONELLA TYPHIMURIUM, Method: STANDARD PLATE

Q: How did the mutagenic call (Strain/Indicator: TA98, Metabolic Activation: NONE) turn out when CCC(C)c1ccc(/C=C/c2ccc([N+](=O)[O-])cc2)cc1 (centres undefined) was run?
A: active; positive

Q: What about the mutagenic call (Strain/Indicator: TA98, Metabolic Activation: RAT, LIVER, S-9, AROCLOR) of the same compound?
A: active; positive

Q: What about the mutagenic call (Strain/Indicator: TA100, Metabolic Activation: NONE) of the same compound?
A: inactive; negative

Q: And the mutagenic call (Strain/Indicator: TA100, Metabolic Activation: RAT, LIVER, S-9, AROCLOR)?
A: active; positive
